This is an account of results in ChEMBL document CHEMBL1136839, “3,4-Disubstituted isothiazoles: novel potent inhibitors of VEGF receptors 1 and 2” (Bioorg Med Chem Lett, 2009).

The term inhibition denotes how much of the control response was suppressed. The low end stands for little suppression, the high end for strong suppression. Usually IC50 stands for the point on the concentration scale where inhibition reaches its midpoint.

Experiment [1] has as its target Serine/threonine-protein kinase PLK1 (Homo sapiens) (UniProt P53350). As to the kind of experiment: Inhibition of Plk1 at 10 uM by HTRF assay. For orientation: Time-resolved FRET reads energy transfer from a long-lived donor to a nearby acceptor.
In experiment [2] the target is T1, Vascular endothelial growth factor receptor 2 (Homo sapiens, UniProt P35968). The experiment in a line: Inhibition of VEGFR2 assessed as blockade of pGAT-biotin phosphorylation in presence of 2 uM ATP by HTRF assay.
Experiment [3] addresses Vascular endothelial growth factor receptor 1 (Homo sapiens, UniProt P17948). As to the kind of experiment: Inhibition of VEGFR1 assessed as blockade of pGAT-biotin phosphorylation in presence of 2 uM ATP by HTRF assay.
The target in experiment [4] is T1, Vascular endothelial growth factor receptor 2. The experiment in a line: Inhibition of VEGFR2 expressed in HEK293 cells assessed as inhibition of receptor phosphorylation by ELISA. The experiment is classed as cell-based.
Experiment [5] addresses Insulin-like growth factor 1 receptor (Homo sapiens) (UniProt P08069). The experiment in a line: Inhibition of IGF1R at 10 uM by HTRF assay.
In experiment [6] the target is Insulin receptor (Homo sapiens) (UniProt P06213). The experiment in a line: Inhibition of InR at 10 uM by HTRF assay.
Experiment [7] has as its target Fibroblast growth factor receptor 1 (Homo sapiens) (UniProt P11362). As to the kind of experiment: Inhibition of FGFR1 at 10 uM by HTRF assay.
The target in experiment [8] is Receptor-type tyrosine-protein kinase FLT3 (Homo sapiens) (UniProt P36888). The experiment in a line: Inhibition of Flt3 at 10 uM by HTRF assay.
In experiment [9] the target is Epidermal growth factor receptor (Homo sapiens) (UniProt P00533). As to the kind of experiment: Inhibition of EGFR at 10 uM by HTRF assay.
Experiment [10] deals with Receptor tyrosine-protein kinase erbB-2 (Homo sapiens) (UniProt P04626). As to the kind of experiment: Inhibition of ErbB2 at 10 uM by HTRF assay.
Experiment [11] deals with Hepatocyte growth factor receptor (Homo sapiens) (UniProt P08581). As to the kind of experiment: Inhibition of cMET at 10 uM by HTRF assay.
In experiment [12] the target is Macrophage-stimulating protein receptor (Homo sapiens) (UniProt Q04912). As to the kind of experiment: Inhibition of Ron at 10 uM by HTRF assay.
Experiment [13] is described as follows: Inhibition of PKA at 10 uM by HTRF assay.
The target of experiment [14] is Glycogen synthase kinase-3 beta (Homo sapiens) (UniProt P49841). The experiment in a line: Inhibition of GSK3-beta at 10 uM by HTRF assay.
Experiment [15] deals with Bcr/Abl fusion protein (Homo sapiens) (UniProt P00519+P11274). As to the kind of experiment: Inhibition of bcr-Abl at 10 uM by HTRF assay. In kind it is protein assay.
For experiment [16], the target named is Cyclin-dependent kinase 1 (Homo sapiens) (UniProt P06493). As to the kind of experiment: Inhibition of CDK1 at 10 uM by HTRF assay.
The target of experiment [17] is Cyclin-dependent kinase 2 (Homo sapiens) (UniProt P24941). The experiment in a line: Inhibition of CDK2 at 10 uM by HTRF assay.
The target of experiment [18] is Proto-oncogene tyrosine-protein kinase Src (Homo sapiens) (UniProt P12931). As to the kind of experiment: Inhibition of Src at 10 uM by HTRF assay.
Experiment [19] has as its target T2, Aurora kinase A (Homo sapiens) (UniProt O14965).
T2 sequence (whole entry): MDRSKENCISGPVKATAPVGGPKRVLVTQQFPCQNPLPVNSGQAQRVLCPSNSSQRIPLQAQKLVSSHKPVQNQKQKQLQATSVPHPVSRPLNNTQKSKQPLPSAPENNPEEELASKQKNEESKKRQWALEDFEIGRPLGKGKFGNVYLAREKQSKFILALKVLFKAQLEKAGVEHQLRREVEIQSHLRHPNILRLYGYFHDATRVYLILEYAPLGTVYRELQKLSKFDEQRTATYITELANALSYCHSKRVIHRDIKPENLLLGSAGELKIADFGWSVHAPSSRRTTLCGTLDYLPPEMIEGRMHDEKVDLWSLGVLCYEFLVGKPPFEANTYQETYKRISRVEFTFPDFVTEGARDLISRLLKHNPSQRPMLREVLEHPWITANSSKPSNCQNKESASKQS
As to the kind of experiment: Inhibition of Aurora A at 10 uM by HTRF assay.

The target of experiment [20] is Aurora kinase B (Homo sapiens) (UniProt Q96GD4). As to the kind of experiment: Inhibition of Aurora B at 10 uM by HTRF assay.
Experiment [21] is described as follows: Inhibition of Bcr-Abl T315 mutant at 10 uM by HTRF assay.

Sequence of Receptor-type tyrosine-protein kinase FLT3 (Homo sapiens) (P36888 whole entry): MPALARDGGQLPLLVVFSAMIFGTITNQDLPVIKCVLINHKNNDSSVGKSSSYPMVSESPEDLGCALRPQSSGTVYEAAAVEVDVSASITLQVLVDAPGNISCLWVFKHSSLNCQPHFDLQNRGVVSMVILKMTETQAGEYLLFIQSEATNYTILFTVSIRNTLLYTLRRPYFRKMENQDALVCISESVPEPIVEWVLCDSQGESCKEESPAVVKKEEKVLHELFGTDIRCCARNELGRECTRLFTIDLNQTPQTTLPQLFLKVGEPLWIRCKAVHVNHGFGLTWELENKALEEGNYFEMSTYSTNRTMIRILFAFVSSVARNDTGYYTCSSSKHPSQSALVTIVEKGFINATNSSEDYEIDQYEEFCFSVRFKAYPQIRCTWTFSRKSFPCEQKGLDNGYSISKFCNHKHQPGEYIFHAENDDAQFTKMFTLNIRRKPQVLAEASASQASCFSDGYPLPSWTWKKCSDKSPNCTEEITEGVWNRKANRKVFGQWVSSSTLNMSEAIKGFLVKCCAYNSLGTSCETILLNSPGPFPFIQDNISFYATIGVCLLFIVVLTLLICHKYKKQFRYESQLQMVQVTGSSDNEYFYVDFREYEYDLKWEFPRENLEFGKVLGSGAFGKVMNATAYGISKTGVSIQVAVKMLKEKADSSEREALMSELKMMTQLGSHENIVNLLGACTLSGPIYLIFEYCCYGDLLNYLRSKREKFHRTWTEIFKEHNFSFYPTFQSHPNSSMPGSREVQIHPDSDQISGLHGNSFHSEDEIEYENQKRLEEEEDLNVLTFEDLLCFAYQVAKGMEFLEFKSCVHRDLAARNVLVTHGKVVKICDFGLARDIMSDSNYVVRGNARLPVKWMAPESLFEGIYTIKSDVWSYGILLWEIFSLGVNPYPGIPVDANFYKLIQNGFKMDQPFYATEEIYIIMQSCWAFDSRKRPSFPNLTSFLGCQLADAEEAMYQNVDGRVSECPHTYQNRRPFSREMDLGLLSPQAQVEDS
Sequence of Serine/threonine-protein kinase PLK1 (Homo sapiens) (P53350 whole entry): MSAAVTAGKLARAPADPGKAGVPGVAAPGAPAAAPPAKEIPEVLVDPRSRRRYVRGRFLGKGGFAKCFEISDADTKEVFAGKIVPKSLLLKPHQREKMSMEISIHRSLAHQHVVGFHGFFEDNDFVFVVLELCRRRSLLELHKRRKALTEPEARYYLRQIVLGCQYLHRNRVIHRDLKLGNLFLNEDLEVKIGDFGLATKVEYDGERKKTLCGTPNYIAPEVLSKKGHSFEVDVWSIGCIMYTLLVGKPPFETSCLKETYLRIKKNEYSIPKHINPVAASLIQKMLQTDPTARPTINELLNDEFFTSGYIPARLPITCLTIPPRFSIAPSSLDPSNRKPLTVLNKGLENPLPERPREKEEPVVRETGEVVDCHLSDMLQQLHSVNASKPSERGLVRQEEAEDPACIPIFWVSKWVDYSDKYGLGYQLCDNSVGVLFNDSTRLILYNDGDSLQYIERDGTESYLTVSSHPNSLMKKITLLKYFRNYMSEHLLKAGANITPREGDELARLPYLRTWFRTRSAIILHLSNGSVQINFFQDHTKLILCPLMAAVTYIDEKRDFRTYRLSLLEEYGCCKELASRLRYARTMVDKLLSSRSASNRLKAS
Sequence of Bcr/Abl fusion protein (Homo sapiens) (P00519 whole entry, looked up, the tested form may be a part): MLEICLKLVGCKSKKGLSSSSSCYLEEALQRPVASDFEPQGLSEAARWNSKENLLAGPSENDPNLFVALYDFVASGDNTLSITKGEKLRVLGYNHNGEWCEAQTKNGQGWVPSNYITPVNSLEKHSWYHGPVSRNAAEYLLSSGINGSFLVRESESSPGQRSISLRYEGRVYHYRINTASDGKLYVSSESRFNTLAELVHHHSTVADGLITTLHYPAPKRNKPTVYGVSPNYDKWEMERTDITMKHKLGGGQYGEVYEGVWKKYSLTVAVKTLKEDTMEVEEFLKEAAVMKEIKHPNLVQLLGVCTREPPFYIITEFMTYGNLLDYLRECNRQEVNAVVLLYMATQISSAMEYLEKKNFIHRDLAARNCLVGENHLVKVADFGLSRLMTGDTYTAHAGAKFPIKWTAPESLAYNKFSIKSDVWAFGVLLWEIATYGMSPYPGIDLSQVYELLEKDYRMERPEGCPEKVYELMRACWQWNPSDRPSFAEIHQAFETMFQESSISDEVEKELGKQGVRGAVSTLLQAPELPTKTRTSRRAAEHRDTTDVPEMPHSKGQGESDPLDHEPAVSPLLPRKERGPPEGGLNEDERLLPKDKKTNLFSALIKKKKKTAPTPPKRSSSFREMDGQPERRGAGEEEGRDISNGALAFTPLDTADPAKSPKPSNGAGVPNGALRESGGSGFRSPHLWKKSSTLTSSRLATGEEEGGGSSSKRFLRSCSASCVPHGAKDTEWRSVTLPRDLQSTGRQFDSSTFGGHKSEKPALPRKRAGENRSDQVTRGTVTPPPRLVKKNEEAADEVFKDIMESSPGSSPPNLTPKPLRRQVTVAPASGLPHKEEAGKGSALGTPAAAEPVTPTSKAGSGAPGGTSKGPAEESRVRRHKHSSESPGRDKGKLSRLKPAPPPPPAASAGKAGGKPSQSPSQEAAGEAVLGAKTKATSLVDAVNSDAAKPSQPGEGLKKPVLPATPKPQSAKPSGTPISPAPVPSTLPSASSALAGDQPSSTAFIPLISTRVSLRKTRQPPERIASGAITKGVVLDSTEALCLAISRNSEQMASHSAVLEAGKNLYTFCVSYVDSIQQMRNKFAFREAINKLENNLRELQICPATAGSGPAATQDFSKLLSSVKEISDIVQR
Sequence of Bcr/Abl fusion protein (Homo sapiens) (P11274 whole entry, looked up, the tested form may be a part): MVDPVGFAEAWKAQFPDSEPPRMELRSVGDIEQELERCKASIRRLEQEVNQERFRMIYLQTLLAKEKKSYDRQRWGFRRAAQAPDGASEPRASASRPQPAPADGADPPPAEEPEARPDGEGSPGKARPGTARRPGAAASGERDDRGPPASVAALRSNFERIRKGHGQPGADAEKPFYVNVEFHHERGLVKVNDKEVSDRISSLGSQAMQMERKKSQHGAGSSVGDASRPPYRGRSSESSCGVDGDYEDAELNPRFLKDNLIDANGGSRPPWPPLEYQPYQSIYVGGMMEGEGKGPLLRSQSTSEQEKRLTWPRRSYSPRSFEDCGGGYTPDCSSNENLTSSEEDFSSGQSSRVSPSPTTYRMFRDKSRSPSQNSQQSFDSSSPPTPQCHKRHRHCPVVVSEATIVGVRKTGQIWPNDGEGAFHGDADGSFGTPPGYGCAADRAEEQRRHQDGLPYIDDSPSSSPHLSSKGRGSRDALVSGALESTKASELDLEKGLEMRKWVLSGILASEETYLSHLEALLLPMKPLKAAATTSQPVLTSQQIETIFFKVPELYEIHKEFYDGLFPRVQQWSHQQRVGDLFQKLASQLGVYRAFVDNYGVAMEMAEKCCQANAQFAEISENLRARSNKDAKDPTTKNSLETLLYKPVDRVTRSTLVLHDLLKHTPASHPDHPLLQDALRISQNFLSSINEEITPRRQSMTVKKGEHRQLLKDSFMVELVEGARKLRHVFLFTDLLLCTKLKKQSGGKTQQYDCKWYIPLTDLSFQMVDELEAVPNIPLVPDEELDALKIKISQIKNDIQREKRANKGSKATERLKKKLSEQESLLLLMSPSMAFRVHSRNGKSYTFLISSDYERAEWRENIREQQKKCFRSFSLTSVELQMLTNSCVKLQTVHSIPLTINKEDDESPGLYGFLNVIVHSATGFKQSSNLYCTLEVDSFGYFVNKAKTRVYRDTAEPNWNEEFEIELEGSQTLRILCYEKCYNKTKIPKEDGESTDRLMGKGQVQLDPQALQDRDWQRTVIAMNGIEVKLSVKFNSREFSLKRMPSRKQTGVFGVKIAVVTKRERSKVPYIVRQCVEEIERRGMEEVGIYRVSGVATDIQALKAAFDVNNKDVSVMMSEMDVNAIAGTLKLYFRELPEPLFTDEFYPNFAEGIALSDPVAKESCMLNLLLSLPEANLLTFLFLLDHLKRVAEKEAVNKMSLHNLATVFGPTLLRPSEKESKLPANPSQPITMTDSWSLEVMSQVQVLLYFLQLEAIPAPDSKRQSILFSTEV
Sequence of Glycogen synthase kinase-3 beta (Homo sapiens) (P49841 whole entry, looked up, the tested form may be a part): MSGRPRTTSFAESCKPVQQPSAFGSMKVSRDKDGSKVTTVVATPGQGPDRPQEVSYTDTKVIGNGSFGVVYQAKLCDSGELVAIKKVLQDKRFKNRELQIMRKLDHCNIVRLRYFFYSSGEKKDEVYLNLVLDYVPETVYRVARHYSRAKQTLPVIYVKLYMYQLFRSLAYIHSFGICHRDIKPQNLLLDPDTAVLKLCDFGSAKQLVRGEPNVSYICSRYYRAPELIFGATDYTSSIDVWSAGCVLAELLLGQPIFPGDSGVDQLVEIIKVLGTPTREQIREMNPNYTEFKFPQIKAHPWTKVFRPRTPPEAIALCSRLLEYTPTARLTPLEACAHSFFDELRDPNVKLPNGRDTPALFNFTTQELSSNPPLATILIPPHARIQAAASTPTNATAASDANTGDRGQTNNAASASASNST
Sequence of Aurora kinase B (Homo sapiens) (Q96GD4 whole entry): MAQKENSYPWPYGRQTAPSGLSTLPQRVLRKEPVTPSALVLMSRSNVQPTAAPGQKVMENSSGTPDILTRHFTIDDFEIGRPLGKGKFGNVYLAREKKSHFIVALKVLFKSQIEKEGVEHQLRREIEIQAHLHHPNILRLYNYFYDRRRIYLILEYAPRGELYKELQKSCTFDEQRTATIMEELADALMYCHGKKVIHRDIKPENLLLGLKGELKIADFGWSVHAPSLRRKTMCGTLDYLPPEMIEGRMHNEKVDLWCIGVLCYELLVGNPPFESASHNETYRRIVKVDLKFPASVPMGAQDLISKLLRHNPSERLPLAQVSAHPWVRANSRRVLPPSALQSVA
Sequence of Cyclin-dependent kinase 1 (Homo sapiens) (P06493 whole entry, looked up): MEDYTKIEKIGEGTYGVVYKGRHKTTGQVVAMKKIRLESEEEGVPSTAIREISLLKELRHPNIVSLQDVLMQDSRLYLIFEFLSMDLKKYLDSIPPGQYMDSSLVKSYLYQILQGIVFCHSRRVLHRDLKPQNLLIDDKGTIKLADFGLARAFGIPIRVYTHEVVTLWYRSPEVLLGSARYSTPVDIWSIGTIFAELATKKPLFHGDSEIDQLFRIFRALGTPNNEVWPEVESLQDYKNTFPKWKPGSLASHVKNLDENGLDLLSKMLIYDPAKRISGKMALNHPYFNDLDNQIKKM

As for `O=C(Nc1cccc(C(F)(F)F)c1)c1nscc1NCc1ccccn1`, the inhibition in experiment [1], in experiment [5], in [6], in [7], in [8] and in experiment [9] was less than 30% each time. The inhibition in experiment [10], in experiment [11], in experiment [12], in [13], in [14] and in experiment [15] was less than 30% in each case. Also, the inhibition in experiment [16], in experiment [17], in experiment [18], in [19], in [20] and in experiment [21] was less than 30% in each case. The IC50 in experiment [2], in experiment [3] and in [4] was more than 10000 nM in each case.
Regarding `O=C(Nc1ccc2ccccc2n1)c1nscc1NCc1ccncc1`, the inhibition in experiment [1], in experiment [5], in experiment [6], in experiment [7], in experiment [8] and in [9] was less than 30% each time. The inhibition in [10], in experiment [11], in experiment [12], in [13], in experiment [14] and in experiment [15] was less than 30% throughout. The inhibition in experiment [16], in experiment [17], in [18], in experiment [19], in experiment [20] and in experiment [21] was less than 30% in each case. The IC50 in experiment [2] worked out at 440 nM; in experiment [3], 380 nM; in experiment [4], 770 nM.
For the compound `O=C(Nc1cccc(C(F)(F)F)c1)c1nscc1NCCc1ccc2c(c1)OCO2`, the inhibition in experiment [1], in experiment [5], in [6], in experiment [7], in [8] and in experiment [9] was less than 30% in each case. Besides, the inhibition in experiment [10], in experiment [11], in experiment [12], in experiment [13], in [14] and in experiment [15] was less than 30% each time. Besides, the inhibition in experiment [16], in experiment [17], in experiment [18], in experiment [19], in [20] and in experiment [21] was less than 30% throughout. The IC50 in [2], in experiment [3] and in experiment [4] was more than 10000 nM throughout.
Regarding `O=C(Nc1cccc(Br)c1)c1nscc1NCc1ccc2ccccc2n1`, the inhibition in experiment [1], in experiment [5], in [6], in [7], in experiment [8] and in experiment [9] was less than 30% each time. For the same compound, the inhibition in experiment [10], in experiment [11], in experiment [12], in experiment [13], in [14] and in experiment [15] was less than 30% throughout. The inhibition in [16], in experiment [17], in [18], in experiment [19], in experiment [20] and in [21] was less than 30% each time. Moreover, the IC50 in [2], in [3] and in [4] was more than 10000 nM in each case.
Regarding `O=C(Nc1ccc(Cl)c(C(F)(F)F)c1)c1nscc1NCc1ccncc1`, the inhibition in experiment [1], in experiment [5], in experiment [6], in experiment [7], in experiment [8] and in [9] was less than 30% each time. The inhibition in experiment [10], in experiment [11], in experiment [12], in [13], in [14] and in experiment [15] was less than 30% each time. Moreover, the inhibition in experiment [16], in experiment [17], in experiment [18], in experiment [19], in [20] and in experiment [21] was less than 30% throughout. Further, the IC50 in experiment [2] is 230 nM; in experiment [3], 980 nM; in experiment [4] it was 530 nM.
On to `O=C(Nc1ccc(Cl)c(Cl)c1)c1nscc1NCc1ccncc1`, for which the inhibition in experiment [1], in [5], in experiment [6], in [7], in experiment [8] and in experiment [9] was less than 30% each time. The inhibition in experiment [10], in [11], in experiment [12], in [13], in experiment [14] and in experiment [15] was less than 30% in each case. The inhibition in [16], in [17], in experiment [18], in [19], in experiment [20] and in [21] was less than 30% in each case. The half-maximal inhibitory concentration (IC50) in experiment [2] was 670 nM; in experiment [3] it was 750 nM; in experiment [4] it was 1110 nM.
As to `O=C(Nc1cccc(Br)c1)c1nscc1NCCc1ccc2c(c1)OCO2`, the inhibition in experiment [1], in experiment [5], in [6], in experiment [7], in experiment [8] and in experiment [9] was less than 30% in each case. The inhibition in experiment [10], in experiment [11], in experiment [12], in [13], in [14] and in experiment [15] was less than 30% each time. Also, the inhibition in experiment [16], in [17], in [18], in [19], in [20] and in [21] was less than 30% in each case. Further, the IC50 in experiment [2], in experiment [3] and in experiment [4] was more than 10000 nM each time.
For the compound `O=C(Nc1ccccc1Br)c1nscc1NCc1ccncc1`, the inhibition in experiment [5], in experiment [6], in experiment [7], in experiment [8], in experiment [9] and in experiment [10] was less than 30% throughout. Moreover, the inhibition in experiment [11], in experiment [12], in [13], in experiment [14], in [15] and in experiment [16] was less than 30% in each case. Besides, the inhibition in experiment [17], in [18] and in experiment [21] was less than 30% throughout.
As for `O=C(Nc1cccc(C(F)(F)F)c1)c1nscc1NCc1cccnc1`, the inhibition in [5], in experiment [6], in [7], in [8], in [9] and in experiment [10] was less than 30% each time. Moreover, the inhibition in [11], in [12], in experiment [13], in experiment [14], in experiment [15] and in experiment [16] was less than 30% each time. Further, the inhibition in experiment [17], in experiment [18] and in [21] was less than 30% each time.
